Experimental data reported in publication PMC7226860 (ACS Omega, 2020).
Converted amounts (≈) assume the structure as drawn.

Columns and labels:
E. coli (ATCC: 3008) [1] = test: MIC, twofold serial dilution; type: cell-based; details: Escherichia coli, 24 h
S. mutans (ATCC: 25175) [2] = test: Agar well diffusion, inhibition zone; type: cell-based, Streptococcus mutans; details: for zone of inhibition at 15000 µg/mL: Streptococcus mutans, read-out: diameter of the inhibition zone; for diameter of the inhibition zone: S. mutans (ATCC: 25175), Gram (+ve), agar well diffusion, 15 mg/mL, mean ± SD
[3] = tested on: P. aeruginosa (ATCC: 27853); test: Agar well diffusion, inhibition zone; type: cell-based, Pseudomonas aeruginosa; details: for diameter of the inhibition zone: P. aeruginosa (ATCC: 27853), Gram (−ve), agar well diffusion, 15 mg/mL, mean ± SD; for zone of inhibition at 15000 µg/mL: Pseudomonas aeruginosa, read-out: diameter of the inhibition zone
S. aureus (ATCC: 6538) [4] = test: MIC, twofold serial dilution; type: cell-based; details: Staphylococcus aureus, 24 h
[5] = tested on: K. pneumonia (ATCC: 4415); test: Agar well diffusion, inhibition zone; type: cell-based, Klebsiella pneumonia; details: for zone of inhibition at 15000 µg/mL: Klebsiella pneumoniae, read-out: diameter of the inhibition zone, K. pneumonia (ATCC: 4415), Gram (−ve), 15 mg/mL, mean ± SD; for diameter of the inhibition zone: K. pneumonia (ATCC: 4415), Gram (−ve), 15 mg/mL, mean ± SD
[6] = tested on: K. pneumonia (ATCC: 4415); test: MIC, twofold serial dilution; type: cell-based; details: Klebsiella pneumoniae, 24 h, read after 24 h
S. mutans (ATCC: 25175) [7] = test: MIC, twofold serial dilution; type: cell-based; details: Streptococcus mutans, 24 h
[8] = tested on: HFB4 human dermal fibroblast cell line; test: MTT cytotoxicity assay; type: cell-based; details: 48 h
E. coli (ATCC: 3008) [9] = test: Agar well diffusion, inhibition zone; type: cell-based, Escherichia coli; details: for diameter of the inhibition zone: E. coli (ATCC: 3008), Gram (−ve), agar well diffusion, 15 mg/mL, mean ± SD; for zone of inhibition at 15000 µg/mL: Escherichia coli, read-out: diameter of the inhibition zone
S. aureus (ATCC: 6538) [10] = test: Agar well diffusion, inhibition zone; type: cell-based, Staphylococcus aureus; details: for zone of inhibition at 15000 µg/mL: Staphylococcus aureus, read-out: diameter of the inhibition zone; for diameter of the inhibition zone: S. aureus (ATCC: 6538), Gram (+ve), agar well diffusion, 15 mg/mL, mean ± SD
human DHFR = biological target: T1, human DHFR (Homo sapiens, UniProt P00374); test: DHFR inhibitor screening kit; type: biochemical; details: for inhibition at 0.01 µg/mL / inhibition at 0.1 µg/mL / inhibition at 1 µg/mL / inhibition at 10 µg/mL: read-out: Inhibition of DHFR enzyme
T1 sequence (P00374 1-187): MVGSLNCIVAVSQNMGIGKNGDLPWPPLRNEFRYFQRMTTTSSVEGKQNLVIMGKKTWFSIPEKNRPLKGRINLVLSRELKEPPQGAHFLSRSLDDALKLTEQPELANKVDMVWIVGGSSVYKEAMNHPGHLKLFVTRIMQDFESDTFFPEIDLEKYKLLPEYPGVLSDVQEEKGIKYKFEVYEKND

[11] = tested on: C. albicans (ATCC: 10231); test: Agar well diffusion, inhibition zone; type: cell-based, Candida albicans; details: for diameter of the inhibition zone: C. albicans (ATCC: 10231), fungi, 15 mg/mL, mean ± SD; for zone of inhibition at 15000 µg/mL: Candida albicans, read-out: diameter of the inhibition zone, C. albicans (ATCC: 10231), fungi, 15 mg/mL, mean ± SD
[12] = tested on: C. albicans (ATCC: 10231); test: MIC, twofold serial dilution; type: cell-based, Candida albicans
[13] = tested on: P. aeruginosa (ATCC: 27853); test: MIC, twofold serial dilution; type: cell-based; details: Pseudomonas aeruginosa, 24 h

MIC (E. coli (ATCC: 3008) [1]) [µg/mL] | MIC (S. aureus (ATCC: 6538) [4]) [µg/mL] | MIC [6] [µg/mL] | MIC (S. mutans (ATCC: 25175) [7]) [µg/mL] | IC50 (human DHFR) [nM] | inhibition at 0.01 µg/mL (human DHFR) [%] | inhibition at 0.1 µg/mL (human DHFR) [%] | inhibition at 1 µg/mL (human DHFR) [%] | inhibition at 10 µg/mL (human DHFR) [%] | Structure (SMILES) | zone of inhibition at 15000 µg/mL (S. mutans (ATCC: 25175) [2]) [mm] | diameter of the inhibition zone [3] | zone of inhibition at 15000 µg/mL [5] [mm] | IC50 [8] [µg/mL] | zone of inhibition at 15000 µg/mL (E. coli (ATCC: 3008) [9]) [mm] | zone of inhibition at 15000 µg/mL (S. aureus (ATCC: 6538) [10]) [mm] | diameter of the inhibition zone [11] | other results
31.2 (≈ 66.8 µM) | 500 (≈ 1070 µM) | 125 (≈ 267 µM) | 500 (≈ 1070 µM) | 11800 | 12.4 | 19.3 | 31.2 | 60.1 | Cc1ccc(S(=O)(=O)Nn2c(N)c3c(N)n[nH]c3c(-c3nc4ccccc4s3)c2=O)cc1 [compound 11b, N-(3,4-Diamino-7-(benzo[d]thiazol-2-yl)-6-oxo-1H-pyrazolo[4,3-c]pyridin-5(6H)-yl)-4-methylbenzenesulfonamide] | 21 ± 1 | − | 17.5 ± 0.5 | 295 ± 19.1 (≈ 631 µM) | 26 ± 1 | 25.2 ± 1 | no potency and − | diameter of the inhibition zone (E. coli (ATCC: 3008) [9]): 26.0 ± 1.0 mm
31.2 (≈ 68.9 µM) | 31.2 (≈ 68.9 µM) | 125 (≈ 276 µM) | 1000 (≈ 2210 µM) | 441 | 29.6 | 44.1 | 67 | 71.8 | Nc1n[nH]c2c(-c3nc4ccccc4s3)c(=O)n(NS(=O)(=O)c3ccccc3)c(N)c12 [compound 11a, N-(3,4-Diamino-7-(benzo[d]thiazol-2-yl)-6-oxo-1H-pyrazolo[4,3-c]pyridin-5(6H)-yl)benzenesulfonamide] | 22.3 ± 0.5 | − | 15.2 ± 0.5 | 234 ± 20.7 (≈ 515 µM) | 26 ± 0.5 | 35.2 ± 1.5 | 21.0 ± 1.7 mm | zone of inhibition at 15000 µg/mL [11]: 21 to 28 mm; MIC ([12]; Candida albicans, 24 h): 125 µg/mL (≈ 276 µM)
250 (≈ 999 µM) | 500 (≈ 2000 µM) | 250 (≈ 999 µM) | 125 (≈ 499 µM) |  |  |  |  |  | Nc1ccc(S(=O)(=O)Nc2ncccn2)cc1 [SD, sulfadiazine, reference compound] | 16.3 ± 1.1 |  | 20.4 ± 0.9 | 243 ± 46.1 (≈ 969 µM) | 19.8 ± 0.4 | 31.2 ± 2.1 | no activity | zone of inhibition at 15000 µg/mL [3]: 24 ± 1.4 mm; MIC [13]: 250 µg/mL (≈ 999 µM)
250 (≈ 692 µM) | 1000 (≈ 2770 µM) |  | 1000 (≈ 2770 µM) | 1020 | 17.9 | 33.4 | 60.9 | 81.5 | Cc1ccc(S(=O)(=O)NNC(=O)Cc2nc3ccccc3s2)cc1 [compound 3b, N′-(2-(Benzo[d]thiazol-2-yl)acetyl)-4-methylbenzenesulfonohydrazide] | 10.6 ± 0.5 | − | 32 ± 2 | 165 ± 3.04 (≈ 456 µM) | 17.3 ± 2.5 | 17.6 ± 2.5 | − | 
 |  |  |  |  |  |  |  |  | C[C@@H]1[C@H](O)[C@@H](C)/C=C/C=C/CC/C=C/C=C/C=C/C=C/C(O[C@H]2O[C@H](C)[C@@H](O)[C@H](N)[C@@H]2O)CC2O[C@](O)(CC(O)C(O)CCC(O)CC(O)CC(O)CC(=O)O[C@H]1C)CC(O)C2C(=O)O (stereo partly shown) [Nystatin, reference compound] |  |  |  |  |  |  | 28.0 ± 0.1 mm | MIC ([12]; C. albicans (ATCC: 10231), read after 24 h): 31.25 µg/mL (≈ 33.7 µM)
125 (≈ 258 µM) | 250 (≈ 517 µM) | 1000 (≈ 2070 µM) | 1000 (≈ 2070 µM) | 620 | 19.8 | 37.4 | 65 | 79.4 | CSc1c(C#N)c(N)n(NS(=O)(=O)c2ccc(C)cc2)c(=O)c1-c1nc2ccccc2s1 [compound 5b, N-(6-Amino-3-(benzo[d]thiazol-2-yl)-5-cyano-4-(methylthio)-2-oxopyridin-1(2H)-yl)-4-methylbenzenesulfonamide] | 18.6 ± 1 |  | 25.6 ± 1.1 | 146 ± 27 (≈ 301 µM) | 21.3 ± 3 | 30.3 ± 0.5 | − | zone of inhibition at 15000 µg/mL [3]: 23.3 ± 0.5 mm; MIC [13]: 1000 µg/mL (≈ 2070 µM)
31.2 (≈ 65.4 µM) |  | 62.5 (≈ 131 µM) |  |  |  |  |  |  | CNC(C)C1CCC(N)C(OC2C(N)CC(N)C(OC3OCC(C)(O)C(NC)C3O)C2O)O1 (stereo not shown) [Gentamicin, reference compound] |  |  | 32 ± 0.1 |  | 25 ± 0.1 |  |  | zone of inhibition at 15000 µg/mL [3]: 35 ± 0.1 mm; MIC [13]: 125 µg/mL (≈ 262 µM)
 | 62.5 (≈ 179 µM) |  | 62.5 (≈ 179 µM) |  |  |  |  |  | CC1(C)S[C@@H]2[C@H](NC(=O)[C@H](N)c3ccccc3)C(=O)N2[C@H]1C(=O)O [Ampicillin, reference compound] | 22 ± 0.5 |  |  |  |  | 32 ± 0.5 |  | 
 |  |  |  |  |  |  |  |  | CSc1c(C(=O)Nc2ccccc2)c(N)n(NS(=O)(=O)c2ccc(C)cc2)c(=O)c1-c1nc2ccccc2s1 [compound 9b, 2-Amino-5-(benzo[d]thiazol-2-yl)-1-(4-methylphenylsulfonamido)-4-(methylthio)-6-oxo-N-phenyl-1,6-dihydropyridine-3-carboxamide] |  | − |  |  |  | 27.1 ± 0.2 | − | diameter of the inhibition zone (S. mutans (ATCC: 25175) [2]): −; diameter of the inhibition zone [5]: −; diameter of the inhibition zone (E. coli (ATCC: 3008) [9]): −
62.5 (≈ 133 µM) |  | 1000 (≈ 2130 µM) | 1000 (≈ 2130 µM) | 554 | 30 | 41.8 | 57.3 | 75.9 | CSc1c(C#N)c(N)n(NS(=O)(=O)c2ccccc2)c(=O)c1-c1nc2ccccc2s1 [compound 5a, N-(6-Amino-3-(benzo[d]thiazol-2-yl)-5-cyano-4-(methylthio)-2-oxopyridin-1(2H)-yl)benzenesulfonamide] | 17.6 ± 1.5 | − | 20.6 ± 1 | 167 ± 21.8 (≈ 356 µM) | 26 ± 0.5 |  | 21.0 ± 1.0 mm | diameter of the inhibition zone (S. aureus (ATCC: 6538) [10]): −; zone of inhibition at 15000 µg/mL [11]: 21 to 28 mm; MIC ([12]; Candida albicans, 24 h): 62.5 µg/mL (≈ 133 µM)
 |  |  |  |  |  |  |  |  | COc1ccc(NC(=O)c2c(SC)c(-c3nc4ccccc4s3)c(=O)n(NS(=O)(=O)c3ccc(C)cc3)c2N)cc1 [compound 9f, 2-Amino-5-(benzo[d]thiazol-2-yl)-N-(4-methoxyphenyl)-1-(4-methylphenylsulfonamido)-4-(methylthio)-6-oxo-1,6-dihydropyridine-3-carboxamide] |  | − | 29 |  |  |  | − | diameter of the inhibition zone (S. mutans (ATCC: 25175) [2]): −; diameter of the inhibition zone [5]: 29.6 ± 1.5 mm; diameter of the inhibition zone (E. coli (ATCC: 3008) [9]): −; diameter of the inhibition zone (S. aureus (ATCC: 6538) [10]): −
